Measured values: patent US20260207530A1, “USE FOR AMELIORATION OF INTESTINAL DISEASES USING ALLULOSE” (SAMYANG CORPORATION, priority 2022, published 2026)

Key:
Assay type in all cases: cell-based, human
[1] = tested on: TLR4/NF-κB signaling; assay: Expression of TLR4/NF-κB signaling factors in Caco-2 cells with LPS-induced inflammation (RT-PCR, Western blot); conditions: Caco-2, allulose 5, 10, 20 mM, LPS 1 μg/ml 24 hours
Experimental: The anti-inflammatory effect of allulose was confirmed in Caco-2 cells with inflammation induced with LPS (Lipopolysaccharide). The gene and protein expression levels of factors (p50, p65, TLR4, MyD88, IKKα, IKKβ, IKβα, IRAK4, TRAF6) related to TLR4/NF-κB signaling, which is a signaling that mediates the inflammatory response, were confirmed through RT-PCR and Western blot.
Specifically, Caco-2 cells were cultured and differentiated at a density of 2×10^5 cells/well in 24-well plates and simultaneously treated with allulose dissolved in MEM medium as culture medium of Caco-2 cells, at concentrations of 5, 10, and 20 mM. After 6 hours, LPS (1 μg/ml) was treated to induce inflammation for 24 hours. The culture was performed in an incubator at 5% CO2 and 37° C.
As a negative control, Caco-2 cells not treated with LPS were used. As a positive control, the differentiated Caco-2 cells which were treated with LPS to induce inflammation but not treated with allulose were used.
After extracting RNA from the cells using Trizol, cDNA was synthesized using a cDNA synthesis kit, and the expression level of the genes was confirmed by qRT-PCR using primers designed for each gene. The PCR conditions used were denaturation at 95° C. for 15 seconds, annealing at 62° C. for 30 seconds, and an elongation process at 72° C. for 1 minute. For protein expression analysis, proteins were extracted from the cultured cells using RIPA lysis buffer. The extracted proteins were pretreated by reaction at 95° C. for 5 minutes, and then separated by electrophoresis on SDS-PAGE. After the proteins were transferred to a PVDF membrane, they were blocked in a 5% (w/v) BSA solution for 1 hour, and the primary antibodies for each factor were diluted 1:1000 in a 5% (w/v) BSA solution and reacted at 4° C. for one day. […] The bands were detected using a LAS 4000 system, and the expression density was calculated using image detection software (Image J software) to calculate the expression amount.

[2] = tested on: TLR4/NF-κB signaling and TLR4/MAPK signaling; assay: Expression of TLR4/NF-κB and TLR4/MAPK signaling factors in HT-29 cells with LPS-induced inflammation (RT-PCR, Western blot); conditions: HT-29, allulose 5, 10, 20 mM, LPS 1 μg/ml
Experimental: HT-29 cells were treated simultaneously with LPS (1 μg/ml) and allulose, and reacted for 8 hours. Specifically, HT-29 cells were seeded at a concentration of 2×10^5 cells/well in 24-well plates and cultured in an incubator at 37° C. and % CO2 for 6-7 days. Allulose dissolved in RPMI 1640 medium, which is a HT-29 culture medium, was treated simultaneously at concentrations of 5, 10, and 20 mM, and after 8 hours, LPS (1 μg/ml) was treated to induce inflammation for 24 hours.
The gene and protein expression levels of Factors involved in TLR4/NF-κB signaling and TLR4/MAPK signaling were confirmed using RT-PCR and Western blot. After extracting RNA from cells using Trizol, cDNA was synthesized using a cDNA synthesis kit, and the gene expression levels were measured by qRT-PCR using primers designed for each gene. The PCR conditions used were denaturation at 95° C. for 15 seconds, annealing at 62° C. for 30 seconds, and elongation at 72° C. for 1 minute. For protein expression analysis, proteins were extracted from cultured cells using RIPA lysis buffer. The extracted proteins were pretreated by reacting at 95° C. for 5 minutes, and then separated by electrophoresis in SDS-PAGE. After transferring the protein to the PVDF membrane, it was blocked in 5% (w/v) BSA solution for 1 hour, and the primary antibody for each factor was diluted 1:1000 with 5% (w/v) BSA solution and reacted at 4° C. for 1 day. The membrane reacted with the primary antibody was reacted with the secondary antibody in tris-buffered saline solution containing 0.1% (v/v) Tween 20 for 1 hour at room temperature. The bands were detected using the LAS 4000 system, and the expression density was calculated using image detection software (image J software) to calculate the expression amount.

[3] = tested on: Prostaglandin E2 and COX-2; assay: Prostaglandin E2 (ELISA) and COX-2 (RT-PCR) in Caco-2 cells with LPS-induced inflammation; conditions: allulose 5, 10, 20 mM 6 hours, then LPS 1 μg/ml 12 hours
Experimental: Caco-2 cells were cultured in 24-well plates at a density of 2×10^5 cells/well. The medium was replaced every two days, and allulose was simultaneously treated at concentrations of 5 mM, 10 mM, and 20 mM, and cultured for 6 hours after treatment and reacted for 12 hours after LPS (1 μg/ml) treatment. The supernatant was used for ELISA analysis, and RNA was extracted from the cells using Trizol, and cDNA was synthesized using a cDNA synthesis kit. Then, the expression level of the genes was assessed by qRT-PCR using primers designed for each gene. The PCR conditions used were denaturation at 95° C. for 15 seconds, annealing at 62° C. for 30 seconds, and an elongation process at 72° C. for 1 minute.

[4] = tested on: mucin genes (MUC2, MUC5AC, MUC5B); assay: Mucin gene expression in HT-29 cells with LPS-induced inflammation (RT-PCR); conditions: HT-29, RT-PCR, allulose 5, 10, 20 mM, LPS 1 μg/ml 24 hours
Experimental: The effect of allulose on expression level of mucins was confirmed in HT-29 cells with LPS-induced inflammation. Specifically, HT-29 cells were seeded at a concentration of 2×10^5 cells/well in 24-well plates and cultured in an incubator at 37° C. and % CO2 for 6-7 days. Allulose dissolved in RPMI 1640 medium of a HT-29 culture medium, was simultaneously treated at concentrations of 5, 10, and 20 mM, and after 8 hours, LPS (1 μg/ml) was treated to induce inflammation for 24 hours. Afterwards, the cells were washed with PBS, RNA was extracted from the cells using Trizol, and cDNA was synthesized using a cDNA synthesis kit. Then, the expression level of the gene was assessed by qRT-PCR using primers produced for mucin genes (MUC2, MUC5AC, MUC5B) that protected the intestinal mucosa. The PCR conditions used were denaturation at 95° C. for 15 seconds, annealing at 62° C. for 30 seconds, and elongation at 72° C. for 1 minute.

[5] = tested on: polarized Caco-2 cells; assay: Transepithelial electrical resistance (TEER) in polarized Caco-2 cells treated with IFN-γ/TNF-α; conditions: polarized Caco-2, IFN-γ 10 ng/ml 24 hours, allulose 1 hour, TNF-α 10 ng/ml 6 hours; vs TEER decreased by IFN-γ/TNF-α
Experimental: Transepithelial electrical resistance (TEER) was measured as an indicator of the adhesive strength between intestinal epithelial cells using allulose as an active ingredient, and the electrical resistance values of the upper and lower layers of intestinal cells for allulose materials were examined. Specifically, Caco-2 cells were seeded in the upper layer of a Transwell insert at a concentration of 5×10^4 cells/well, and 600 μl of medium without cells was added to the lower layer and cultured. The medium was replaced every 2 days, and cultured for 3 weeks to form polarization. After polarization formation, the upper layer with cells was pre-treated with IFN-γ (10 ng/ml) for 24 hours, allulose was treated at various concentrations for 1 hour, and TNF-α (10 ng/ml) was treated for 6 hours. After the reaction was completed, the electrical resistance value TEER was measured using a Millicell ERS-2 Voltohmmeter.

[6] = tested on: Caco-2 cells; assay: ROS accumulation with DCFH-DA fluorescent probe in Caco-2 cells with LPS-induced inflammation; conditions: Caco-2, LPS 1 μg/ml and allulose 5, 10, 20 mM 12 h
Experimental: Caco- 2 cells were seeded at 5×10^4 cells/well in 96-well plates and cultured. After simultaneous treatment with LPS (1 μg/ml) and allulose at concentrations of 5 mM, 10 mM, and 20 mM, the cells were cultured for 12 h under conditions of 5% CO2 and 37° C. After removing the culture supernatant, DCF-DA was added to the medium at a concentration of 20 μM and cultured in an incubator for 30 min. After culture, the cells were washed with PBS and the amount of ROS production was measured using fluorescence absorbance at excitation of 488 nm and emission of 535 nm.

[7] = tested on: ZO-1 and Occludin; assay: Expression of tight junction factors ZO-1 and Occludin in Caco-2 cells with LPS-induced inflammation (RT-PCR, Western blot); conditions: Caco-2, allulose 5, 10, 20 mM 6 hours, then LPS 1 μg/ml 12 hours; vs level decreased by inflammation
Experimental: Caco-2 cells were cultured in 24-well plates at a density of 2×10^5 cells/well. The medium was replaced every other day, and the cells were cultured for 6 hours after treatment with 5, 10, and 20 mM allulose, and reacted for 12 hours after treatment with LPS (1 μg/ml). After extracting RNA from the cells using Trizol, cDNA was synthesized using a cDNA synthesis kit, and the gene expression level was confirmed by qRT-PCR using primers designed for each gene. The PCR conditions used were denaturation at 95° C. for 15 seconds, annealing at 62° C. for 30 seconds, and elongation at 72° C. for 1 minute. For protein expression analysis, proteins were extracted from the cultured cells using RIPA lysis buffer. The extracted proteins were pretreated by reacting at 95° C. for 5 minutes, and then separated by electrophoresis on SDS-PAGE. After transferring the proteins to the PVDF membrane, they were blocked in a 5% (w/v) BSA solution for 1 hour, and the primary antibodies for each factor were diluted 1:1000 in a 5% (w/v) BSA solution and reacted at 4° C. for 1 day. […] The bands were detected using a LAS 4000 system, and the expression density was calculated using image detection software (image J software) to calculate the expression amount.

SMILES: O=C(CO)C(O)C(O)C(O)CO (centres unmarked) [allulose]
- expression amount of NF-κB p65/p50 [1]: decreased
- expression amount of TLR4 activated by LPS [1]: decreased
- expression level of factors related to TLR4/NF-κB signaling (mRNA and protein) ([1]; vs LPS control without allulose): decreased
- MAPK signal (p38, p-p38, JNK, p-JNK, c-Jun, p-c-Jun, c-Fos, p-c-Fos) [2]: decreased
- MyD88, IRAK4, TRAF6 expression [2]: decreased
- NF-κB signal (p50, p65, p-p65, Ikkα, Ikkβ, p-Ikkαβ, Ikβα, p-Ikβα) [2]: decreased
- expression level of COX-2 [2]: decreased
- expression level of TLR4 [2]: decreased
- concentration of Prostaglandin E2 ([3]; Caco-2, ELISA of supernatant): decreased
- expression level of COX-2 ([3]; Caco-2, RT-PCR): decreased
- expression level of MUC2 [4]: decreased
- expression level of MUC5AC [4]: decreased
- expression level of MUC5B [4]: decreased
- electrical resistance value (TEER) [5]: increased
- accumulated ROS [6]: reduced
- mRNA and protein expression levels of Occludin [7]: increased
- mRNA and protein expression levels of ZO-1 [7]: increased
